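Each compound was tested at five concentrations against cells in 96-well plates for 48 hours. TGI: concentration producing complete growth inhibition.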
How the values were obtained:
Assay in all cases: DTP human tumour cell line panel, 48 h
SK-MEL-2 melanoma = test system: SK-MEL-2 melanoma
SF-268 CNS = test system: SF-268 CNS
MOLT-4 leukemia = test system: MOLT-4 leukemia
LOX IMVI melanoma = test system: LOX IMVI melanoma
SK-OV-3 ovarian = test system: SK-OV-3 ovarian
DU-145 prostate = test system: DU-145 prostate
RPMI-8226 leukemia = test system: RPMI-8226 leukemia
HS 578T breast = test system: HS 578T breast
SNB-19 CNS = test system: SNB-19 CNS
UO-31 renal = test system: UO-31 renal
HOP-62 NSCLC = test system: HOP-62 NSCLC

| SMILES | TGI (SK-MEL-2 melanoma) [µM] | TGI (SF-268 CNS) [µM] | TGI (MOLT-4 leukemia) [µM] | TGI (LOX IMVI melanoma) [µM] | TGI (SK-OV-3 ovarian) [µM] | TGI (DU-145 prostate) [µM] | TGI (RPMI-8226 leukemia) [µM] | TGI (HS 578T breast) [µM] | TGI (SNB-19 CNS) [µM] | TGI (UO-31 renal) [µM] | TGI (HOP-62 NSCLC) [µM] |
| --- | --- | --- | --- | --- | --- | --- | --- | --- | --- | --- | --- |
| CCN(CC)C1Oc2cc3c(cc2C(c2cccc(OC)c2OC)C1C)OCO3 (configuration not stated) | 30.2 | > 100 | 23.7 | 21.6 | 58.5 | 23.9 | 16.4 | 28.8 | 71.4 | 40.5 | 30.2 |
| COC(=O)C(Cc1c[nH]c2ccccc12)N=C1Nc2ccncc2S(=O)(=O)N1c1cccc(OC(C)C)c1 (configuration not stated) | > 100 | > 100 | 75.8 | > 100 | > 100 | > 100 | 54.4 | > 100 | > 100 | > 100 | > 100 |
| CC(C)(C)NC(=O)CCC1C(C(=O)NC(C)(C)C)C2(Cl)C(Cl)=C(Cl)C1(Cl)C2(Cl)Cl (configuration not stated) | > 100 | > 100 | > 100 | > 100 | > 100 | > 100 | > 100 | > 100 | > 100 | > 100 | > 100 |
| CN(C)CCc1c2c(nc3ccccc13)C(=O)c1cccnc1C2=O | 4.21 | 2.69 | 6.71 | 0.13 | 2.52 | 1.22 | 1.82 | 4.15 | 3.88 | 1.88 |  |
| CNNC(=NS(=O)(=O)c1cc(C#N)c(NNC)cc1S)NNC | > 10 | > 10 | > 10 | > 10 | > 10 | > 10 | > 10 | > 10 | > 10 | > 10 | > 10 |
| Clc1ccc(C2ON=C(c3ccccc3)N2C23CC4CC(CC(C4)C2)C3)cc1 (configuration not stated) | > 10 | > 10 | > 10 | > 10 | > 10 | > 10 | > 10 | > 10 | > 10 |  | > 10 |
| COc1cccc(C(=O)C#Cc2cnc(OC)nc2OC)c1 | 3.95 | 6.14 | 0.7 | 0.25 | 44.9 | 12.4 | 6.43 | > 30.2 | 34.8 | 2.67 | 47.8 |
| CN1CCN(c2ccc3c(c2)NCC(=O)N3)CC1 | > 100 | > 100 | > 100 | > 100 | > 100 | > 100 | > 100 | > 100 | > 100 | > 100 | > 100 |
| COc1ccc2c3c1O[C@H](c1ccc(O)cc1)[C@H]3[N+](C)(C)CC2 | > 100 | > 100 | > 100 | > 100 | > 100 | > 100 | > 100 | > 100 | > 100 | > 100 | > 100 |
| OC(c1cccnc1Cl)c1nc2ccccc2c2ccnc(Cl)c12 (configuration not stated) | > 100 | > 100 | > 100 | > 100 | 63.4 | > 100 | 8.57 | 9.4 | > 100 | > 100 | 15.3 |
| O=c1[nH]nc(-c2ccccc2)n1O | > 100 | > 100 | > 100 | > 100 | > 100 | > 100 | > 100 | > 100 | > 100 | > 100 | > 100 |
| N#Cc1nc(C#N)n(S(=O)(=O)c2ccccc2)c1NS(=O)(=O)c1ccccc1 | > 31.6 | > 100 | > 100 | > 100 | > 100 | > 100 | > 100 | > 100 | > 100 | 79.6 | > 100 |
| O=c1[nH]c2nc3ccccc3c(=O)n2/c1=C/c1ccco1 | > 100 | > 100 | > 100 | > 100 | > 100 | > 100 | > 100 | > 100 | > 100 | > 100 | > 100 |
| CCN(CCN(CC)C(=O)Nc1ccccc1)C(=O)Nc1ccccc1 | > 100 | > 100 | > 100 | > 100 | > 100 | > 100 | > 100 | > 100 | > 100 | > 100 | > 100 |
| N#CCCC1(CCC#N)CCCCCCCCC(CCC#N)(CCC#N)C(O)C1O (configuration not stated) | > 100 | > 100 |  | > 100 | > 100 | > 100 | 58.2 | 91.3 | > 100 |  | > 100 |
| CC1CC(C#N)=C2NCCN2C1=O (configuration not stated) | > 100 | > 100 | > 100 | > 100 | > 100 | > 100 | > 100 | > 100 | > 100 | > 100 | > 100 |
| O=[N+]([O-])c1ccc(C(O)(C#CCN2CCCC2)c2ccccc2)cc1 (configuration not stated) | 75.5 | > 100 | 64.4 | 43.9 | > 100 | > 100 | 61.9 | 95.7 | > 100 | > 100 | > 100 |
| CN(CCCNC(=O)c1cc(-c2ccccc2)nc2ccccc12)CCCNC(=O)c1cc(-c2ccccc2)nc2ccccc12 | 3.67 | 14 | 5.33 | 3.56 | 26.2 | 9.49 | 10.6 | 16 | 16.7 | 6.52 | 4.13 |
| CCOC(=O)C1CCCCN1C(=O)Cc1c[nH]c2ccccc12 (configuration not stated) | > 100 | > 100 | > 100 | > 100 | > 100 | > 100 | 64.7 | > 100 | > 100 |  | > 100 |

| SMILES | TGI (SK-MEL-2 melanoma) [µM] | TGI (SF-268 CNS) [µM] | TGI (MOLT-4 leukemia) [µM] | TGI (LOX IMVI melanoma) [µM] | TGI (SK-OV-3 ovarian) [µM] | TGI (DU-145 prostate) [µM] | TGI (RPMI-8226 leukemia) [µM] | TGI (HS 578T breast) [µM] | TGI (SNB-19 CNS) [µM] | TGI (UO-31 renal) [µM] | TGI (HOP-62 NSCLC) [µM] |
| --- | --- | --- | --- | --- | --- | --- | --- | --- | --- | --- | --- |
| CCC1C(c2ccccc2O)c2cc3c(cc2OC1N1CCOCC1)OCO3 (configuration not stated) | 30.8 | 31.8 | 27 | 30.2 | 39.6 | 28 | 43.8 | 39.6 | 28.6 | 27 | 28.8 |
| CSc1c(C#N)c(N)n(-c2ccc(Cl)cc2)c(=O)c1C#N | > 100 | > 100 | > 100 | > 100 | > 100 | > 100 | > 100 | > 100 | > 100 | > 100 |  |
| c1ccc(CC2COC(c3cccs3)=N2)cc1 (configuration not stated) | > 100 | > 100 | > 100 | > 100 | > 100 | > 100 | > 100 | > 100 | > 100 | > 100 | > 100 |
| CCCCNc1nc(NC2OCC(OC(C)=O)C(OC(C)=O)C2OC(C)=O)c(N=O)c(=O)n1C (configuration not stated) | > 10 | > 10 | > 10 | > 10 | > 10 | > 10 | > 10 | > 10 | > 10 |  | > 10 |
| CCOC(=O)Cn1nnc2ccc(Nc3nc4ccccc4nc3-c3ccccc3)cc21 | > 100 | > 100 | > 100 | > 100 | > 100 | 31.8 | > 100 | > 100 | > 100 | 14.5 | > 100 |
| Nc1nc2c(C(=O)O)c3ccc([N+](=O)[O-])cc3c(=O)n2c2ccccc12 | 79.1 | 94.8 | > 100 | 32.2 | 74.1 | 49.4 | > 100 | 70.6 | 89.6 | > 100 | > 100 |
| O=C(O)c1ccccc1N=Nc1c(O)c(S(=O)(=O)O)cc2cc(S(=O)(=O)O)ccc12 | > 100 | > 100 | > 100 | > 100 | > 100 | > 100 | > 100 | > 100 | > 100 | > 100 | > 100 |
| c1ccc(N=C2c3ccsc3C(=Nc3ccccc3)c3ccsc32)cc1 | 3.38 | 6.82 | 3.77 | 1.38 | 16.3 | 3.12 | 11.7 | 6.04 | 3.88 | 3.74 | 3 |
| COc1cccc(/N=N/C(=NNC(=O)c2ccc(C)cc2)c2ccc(N(C)C)cc2)c1 | > 100 | > 100 | > 100 | > 100 | > 100 | > 100 | > 100 | > 100 | > 100 | > 100 |  |
| O=C1c2c(Br)sc(Br)c2[C@@H](NC(=O)C(F)(F)F)C1Br (some centres not stated) | 27.5 | 15.2 | 5.32 | 3.24 | 32.8 | 18.3 | 5.92 | > 63.9 | 25.9 | 12.5 | 28.2 |
| COc1ccc(C2=NOC(N)(c3ccc(OC)cc3)C2)cc1 (configuration not stated) | > 100 |  | > 100 | > 100 | > 100 | > 100 | > 100 | > 100 | > 100 | > 100 | > 100 |
| CC[C@@]1(O)C(=O)OCc2c1cc1n(c2=O)Cc2c-1nc1ccccc1c2/C=N\NC(=O)C(N)CCSC (some centres not stated) | 4.2 | 1.55 |  | 0.0368 | 7.73 | > 100 | 4.03 | > 100 | 0.722 | 0.277 |  |
| Nc1ccc(Nc2cc(=O)[nH]c(=O)[nH]2)cc1Cl | > 100 | > 100 | > 100 | > 100 | > 100 | > 100 | > 100 | > 100 | > 100 | > 100 |  |
| Clc1ccc2oc(CCc3ccccc3)nc2c1 | > 100 | > 100 | > 100 | > 100 | > 100 | > 100 | > 100 | > 100 | > 100 | > 100 | > 100 |
| COC(=O)C1CCC(=O)N1C(c1ccc2c(c1)OCO2)c1cc(OC)c(OC)c(OC)c1 (configuration not stated) | > 100 | > 100 | > 100 | > 100 | > 100 | > 100 | > 100 | > 100 | > 100 | > 100 | > 100 |
| CC(C)(CCC(C)(C)N1OC1c1ccccc1)N1OC1c1ccccc1 (configuration not stated) | > 100 | > 100 |  | > 100 | > 100 | > 100 | 71.4 | > 100 | > 100 | 62.7 |  |
| O=C(O)c1cc(CCc2cc(O)ccc2O)ccc1O | > 100 | > 100 | > 100 | > 100 | > 100 | > 100 | > 100 | > 100 |  | > 100 | > 100 |
| O=C1Cc2c([nH]c3ccc(C(=O)O)cc23)-c2ccccc2N1 | > 100 | > 100 | > 100 | > 100 | > 100 | > 100 | > 100 | > 100 | > 100 | > 100 | > 100 |
| NC(Cc1ccc(S(=O)(=O)O)cc1)C(=O)NC(Cc1ccc(S(=O)(=O)O)cc1)C(=O)NC(Cc1ccc(S(=O)(=O)O)cc1)C(=O)NC(Cc1ccc(S(=O)(=O)O)cc1)C(=O)O (configuration not stated) | > 100 | > 100 | > 100 | > 100 | > 100 | > 100 | > 100 | > 100 |  | > 100 | > 100 |
